Marks after values point to notes of the source that are not given here. Where a SMILES comes first, the peptide text is derived from it. Where no end group is shown, it is not given here.
Target: T1, ACE (Homo sapiens, UniProt P12821)
T1 construct: purchased Shanghai Yuanye Biotechnology Co., Ltd
Experiment: ACE inhibition rate / IC50 determination with FAPGG substrate (absorbance 340 nm)
Format: biochemical
Settings: for Inhibitory effect as % of the positive control: ACE inhibition rate relative to captopril; for IC50 / Inhibition Rate of ACE: synthesized peptides, captopril as positive control; for Inhibition Rate of ACE: test concentration not given
Procedure: The ACE inhibition rate was determined according to the method developed by Wang. In brief, 1 mmol/L FAPGG solution, 0.1 U/mL ACE solution, and F. velutipes protein solution were mixed in 80 mmol/L HEPES buffer (pH 8.2), and the mixture was added to 96-well plates according to Table 1. The absorbance value at the wavelength of 340 nm at 37 °C and the absorbance value after 30 min of reaction were measured. The calculation formula is as follows: (2) Inhibition Rate of ACE%=(1−ΔA/ΔB)×100
In the formula, ΔA = A1 − A2; ΔB = B1 − B2. ΔA was the absorbance value of the sample pore solution; ΔB was the absorbance value of the control pore solution. A1 and B1 were the absorbance values measured at the wavelength of 340 nm. A2 and B2 were the absorbance values measured at the wavelength of 340 nm after reacting for 30 min at 37 °C.
Wuhan Dangang Biotechnology Co., Ltd. (Wuhan, China) was commissioned to synthesize the peptides. […] With captopril as the positive control, the ACE inhibition rate and IC50 of the above synthetic peptides were determined according to the method of Section 2.5.

T1 sequence (P12821 30-1306, species assumed): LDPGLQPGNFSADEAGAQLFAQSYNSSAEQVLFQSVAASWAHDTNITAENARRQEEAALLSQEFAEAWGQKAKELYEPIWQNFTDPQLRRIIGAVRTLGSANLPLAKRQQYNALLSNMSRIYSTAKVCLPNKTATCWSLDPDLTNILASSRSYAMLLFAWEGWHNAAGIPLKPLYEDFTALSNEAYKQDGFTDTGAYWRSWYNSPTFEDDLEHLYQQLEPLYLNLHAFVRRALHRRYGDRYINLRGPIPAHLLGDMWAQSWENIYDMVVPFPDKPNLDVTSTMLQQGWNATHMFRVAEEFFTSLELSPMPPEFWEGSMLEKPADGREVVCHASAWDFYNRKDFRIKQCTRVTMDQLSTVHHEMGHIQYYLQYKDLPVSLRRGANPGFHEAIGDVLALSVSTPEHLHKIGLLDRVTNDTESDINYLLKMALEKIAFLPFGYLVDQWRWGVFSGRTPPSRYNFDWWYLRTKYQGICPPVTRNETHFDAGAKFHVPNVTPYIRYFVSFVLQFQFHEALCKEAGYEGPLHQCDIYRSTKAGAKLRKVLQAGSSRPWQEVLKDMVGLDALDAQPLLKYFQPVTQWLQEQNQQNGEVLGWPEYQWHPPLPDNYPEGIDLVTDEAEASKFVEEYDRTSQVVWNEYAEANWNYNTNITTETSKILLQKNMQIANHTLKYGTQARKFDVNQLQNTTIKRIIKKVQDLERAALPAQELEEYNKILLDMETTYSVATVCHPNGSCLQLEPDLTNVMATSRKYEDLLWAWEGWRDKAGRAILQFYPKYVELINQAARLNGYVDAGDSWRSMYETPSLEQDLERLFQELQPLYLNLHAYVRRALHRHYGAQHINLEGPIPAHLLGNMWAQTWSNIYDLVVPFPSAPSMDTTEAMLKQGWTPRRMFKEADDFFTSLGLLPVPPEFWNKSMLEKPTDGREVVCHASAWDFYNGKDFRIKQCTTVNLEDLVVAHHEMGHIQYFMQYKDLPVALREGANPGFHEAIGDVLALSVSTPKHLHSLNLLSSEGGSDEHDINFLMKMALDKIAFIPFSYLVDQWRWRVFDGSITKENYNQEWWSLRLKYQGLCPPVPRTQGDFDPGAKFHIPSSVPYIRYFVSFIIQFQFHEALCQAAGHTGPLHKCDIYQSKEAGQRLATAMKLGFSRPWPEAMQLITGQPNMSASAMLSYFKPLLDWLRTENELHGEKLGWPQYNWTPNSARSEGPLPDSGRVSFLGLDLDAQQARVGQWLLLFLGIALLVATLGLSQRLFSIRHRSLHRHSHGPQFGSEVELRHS

| Compound | Inhibitory effect as % of the positive control [%] | IC50 [µM] | Inhibition Rate of ACE |
| --- | --- | --- | --- |
| N[C@@H](Cc1ccccc1)C(=O)N[C@@H](CC(=O)O)C(=O)NCC(=O)N[C@@H](Cc1ccc(O)cc1)C(=O)O [FDGY] (H-FDGY-OH; N-terminus and C-terminus assumed) | 81.53 | 91.5 ± 1.09 | 80.48 ± 0.84 ^e % |
| C[C@H](NC(=O)[C@@H](N)Cc1c[nH]c2ccccc12)C(=O)N[C@@H](CC(=O)O)C(=O)N1CCC[C@H]1C(=O)O [WADP] (H-WADP-OH; N-terminus and C-terminus assumed) | 84.13 | 41.3 ± 0.7 | 83.04 ± 0.68 ^d % |
| FAGGP [FAGGP] | 87.04 | 29.2 ± 1.37 | 85.92 ± 1.81 ^c % |
| FHPGY [FHPGY] | 92.60 | 14.8 ± 0.34 | 91.41 ± 1.01 ^b % |
